Patent publication US12043599B2, “Herbicidal compounds” (SYNGENTA PARTICIPATIONS AG, priority 2018, dated 2024)

What was measured:
Format in all cases: in vivo
Details in all cases: 250 g/h, evaluated after 13 days
Lolium perenne (LOLPE) [1] = experiment: Pre-emergence herbicidal glasshouse test, percentage damage
In short: (§1)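 Seeds are sown in pots, grown at 24/16 °C day/night with 14 h light and 65% humidity, then sprayed at day 1 (pre-emergence) or day 8 (post-emergence). The rate is 250 g/h in acetone/water 50:50 with 0.5% Tween 20. Damage is assessed 13 days later on a 1–5 scale.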

Avena fatua (AVEFA) [2] = experiment: as above
In short: as §1

Setaria faberi (SETFA) [3] = experiment: as above
In short: as §1

[4] = tested on: Echinochloa crus-galli (ECHCG); experiment: as above
In short: as §1

[5] = tested on: Alopecurus myosuroides (ALOMY); experiment: as above
In short: as §1

Lolium perenne (LOLPE) [6] = experiment: Post-emergence herbicidal glasshouse test, percentage damage
In short: as §1

Avena fatua (AVEFA) [7] = experiment: as above
In short: as §1

[8] = tested on: Echinochloa crus-galli (ECHCG); experiment: as above
In short: as §1

[9] = tested on: Alopecurus myosuroides (ALOMY); experiment: as above
In short: as §1

Setaria faberi (SETFA) [10] = experiment: as above
In short: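 Percentage damage was scored 13 days after treatment on a five-point scale (1=0-19% to 5=80-100%). Treatments were post-emergence sprays on 8-day-old wheat, barley and SETFA plants in a glasshouse (24/16 °C day/night, 14 h light, 65% humidity), using acetone/water 50:50 with 0.5% Tween 20 at the stated rates. Wheat additionally received cloquintocet-mexyl safener at 50 g/ha.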

Compound | LOLPE PRE percentage damage (five point scale) (Lolium perenne (LOLPE) [1]) | AVEFA PRE percentage damage (five point scale) (Avena fatua (AVEFA) [2]) | SETFA PRE percentage damage (five point scale) (Setaria faberi (SETFA) [3]) | ECHCG PRE percentage damage (five point scale) [4] | ALOMY PRE percentage damage (five point scale) [5] | LOLPE POST percentage damage (five point scale) (Lolium perenne (LOLPE) [6]) | AVEFA POST percentage damage (five point scale) (Avena fatua (AVEFA) [7]) | ECHCG POST percentage damage (five point scale) [8] | ALOMY POST percentage damage (five point scale) [9] | SETFA POST percentage damage (five point scale) (Setaria faberi (SETFA) [10])
CC#Cc1cc(C)c(C2C(=O)CC3(CCN(C(=O)NC(=O)c4ncccc4F)CC3)CC2=O)c(C)c1 [Compound A163] | 4 (4=60-79%) | 5 (5=80-100%) | 5 (5=80-100%) | 5 (5=80-100%) | 0 | 5 (5=80-100%) | 5 (5=80-100%) | 5 (5=80-100%) | 5 (5=80-100%) | 5 (5=80-100%)
CC#Cc1cc(C)c(C2=C(OC(=O)OC)CC3(CCN(C(=O)C(C)(C)C#N)CC3)CC2=O)c(C)c1 [Compound P27] | 5 (5=80-100%) | 5 (5=80-100%) | 5 (5=80-100%) | 5 (5=80-100%) | 5 (5=80-100%) | 5 (5=80-100%) | 5 (5=80-100%) | 5 (5=80-100%) | 5 (5=80-100%) | 5 (5=80-100%)
CC#Cc1cc(C)c(C2C(=O)CC3(CCN(C(=O)c4ccccc4)CC3)CC2=O)c(OC)c1 [Compound A73] | 5 (5=80-100%) | 5 (5=80-100%) | 5 (5=80-100%) | 5 (5=80-100%) | 5 (5=80-100%) | 5 (5=80-100%) | 5 (5=80-100%) | 5 (5=80-100%) | 5 (5=80-100%) | 5 (5=80-100%)
CC#Cc1cc(C)c(C2C(=O)CC3(CCN(C(=O)Nc4ccccn4)CC3)CC2=O)c(C)c1 [Compound A41] | 5 (5=80-100%) | 4 (4=60-79%) | 5 (5=80-100%) | 5 (5=80-100%) | 4 (4=60-79%) | 5 (5=80-100%) | 5 (5=80-100%) | 5 (5=80-100%) | 4 (4=60-79%) | 5 (5=80-100%)
CC#Cc1cc(C)c(C2C(=O)CC3(CCN(C(=O)N(C)C(C)=O)CC3)CC2=O)c(C)c1 [Compound A86] | 5 (5=80-100%) | 5 (5=80-100%) | 5 (5=80-100%) | 5 (5=80-100%) | 5 (5=80-100%) | 5 (5=80-100%) | 5 (5=80-100%) | 5 (5=80-100%) | 5 (5=80-100%) | 5 (5=80-100%)
CC#Cc1cc(C)c(C2=C(OC(=O)c3ccccc3)CC3(CCN(C(=O)c4ccccc4)CC3)CC2=O)c(C)c1 [Compound P2] | 5 (5=80-100%) | 5 (5=80-100%) | 5 (5=80-100%) | 5 (5=80-100%) | 5 (5=80-100%) | 5 (5=80-100%) | 5 (5=80-100%) | 5 (5=80-100%) | 5 (5=80-100%) | 5 (5=80-100%)
CC#Cc1cc(C)c(C2C(=O)CC3(CCN(C(=O)NC(=O)c4ccccc4)CC3)CC2=O)c(C)c1 [Compound A166] | 5 (5=80-100%) | 4 (4=60-79%) | 5 (5=80-100%) | 4 (4=60-79%) | 5 (5=80-100%) | 5 (5=80-100%) | 5 (5=80-100%) | 5 (5=80-100%) | 5 (5=80-100%) | 5 (5=80-100%)
CC#Cc1cc(C)c(C2C(=O)CC3(CCN(C(=O)C4CC4)CC3)CC2=O)c(OC)c1 [Compound A78] | 5 (5=80-100%) | 5 (5=80-100%) | 5 (5=80-100%) | 5 (5=80-100%) | 5 (5=80-100%) | 5 (5=80-100%) | 5 (5=80-100%) | 5 (5=80-100%) | 5 (5=80-100%) | 5 (5=80-100%)
CC#Cc1cc(C)c(C2=C(OC(=O)OC)CC3(CCN(S(C)(=O)=O)CC3)CC2=O)c(C)c1 [Compound P28] | 5 (5=80-100%) | 5 (5=80-100%) | 5 (5=80-100%) | 5 (5=80-100%) | 5 (5=80-100%) | 5 (5=80-100%) | 5 (5=80-100%) | 5 (5=80-100%) | 5 (5=80-100%) | 5 (5=80-100%)
